Data taken from PubChem BioAssay (NCI).
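A five-concentration, 48-hour dose response in 96-well plates underlies each endpoint, interpolated linearly between surrounding concentrations. Definition used: TGI = concentration required for complete inhibition of growth.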 *1 amine or outer side, *2 acyl side, *3 side chain or, on linkers, in order; H or OH if unused. Where a SMILES comes first, the peptide text is derived from it. [ ]: non-standard residue; d: D form. The star is where a group is joined. ξ: configuration not given here. NMeY = CN[C@@H](Cc1ccc(O)cc1)C(=O)O; Ethylenediamine = C(CN[*:2])N[*:1]; ξNMeL = CNC(CC(C)C)C(=O)O; Cbz = O=C(OCc1ccccc1)*; Lac = C[C@H](O)C(=O)O; ξA = CC(N)C(=O)O

How the values were obtained:
Assay in all cases: growth of human tumour cells (NCI), 48 h
[1] = tested on: EKVX NSCLC
[2] = tested on: HCT-15 colon
[3] = tested on: HOP-62 NSCLC
[4] = tested on: HOP-92 NSCLC
[5] = tested on: HS 578T breast
[6] = tested on: HT29 colon
[7] = tested on: IGROV1 ovarian
[8] = tested on: M14 melanoma
[9] = tested on: MALME-3M melanoma
[10] = tested on: MDA-MB-435
[11] = tested on: MOLT-4 leukemia
[12] = tested on: OVCAR-3 ovarian
[13] = tested on: OVCAR-5 ovarian
[14] = tested on: SK-MEL-2 melanoma
[15] = tested on: SK-MEL-5 melanoma
[16] = tested on: SR leukemia
[17] = tested on: TK-10 renal
[18] = tested on: UO-31 renal

Compound	TGI [1]	TGI [2]	TGI [3]	TGI [4]	TGI [5]	TGI [6]	TGI [7]	TGI [8]	TGI [9]	TGI [10]	TGI [11]	TGI [12]	TGI [13]	TGI [14]	TGI [15]	TGI [16]	TGI [17]	TGI [18]
Cc1cccc(NC(=O)O/N=C(\Cl)C(C)C)c1	11.1 µM	4.98 µM	34.5 µM	3.14 µM	63.7 µM	27.2 µM	33.8 µM	16.4 µM	5.29 µM	31.7 µM	5.63 µM	11.4 µM	35.8 µM	32.6 µM	32.9 µM	4.4 µM	27.3 µM	30.3 µM
CNCCCNC(=S)Cn1cc(C)c(=O)[nH]c1=O	> 100 µM	> 100 µM	> 100 µM	> 100 µM	> 75.5 µM	> 100 µM	> 96.1 µM	> 69.6 µM	> 100 µM	> 31.6 µM	> 71.7 µM	> 100 µM	> 100 µM	> 74.4 µM	> 31.4 µM	> 100 µM	> 100 µM	> 86.7 µM
Cc1cc(S(=O)(=O)Nc2nnc3c4ccccc4cnn23)c(S)cc1Cl	> 100 µM	> 100 µM	> 100 µM	> 100 µM	> 89 µM	> 100 µM	> 100 µM	> 100 µM	> 100 µM	> 100 µM	> 100 µM	> 100 µM	> 100 µM	> 100 µM	> 100 µM	> 100 µM	> 100 µM	> 100 µM
CN(CCNC(=O)c1c[nH]c2c1ccc1ccccc12)CCNC(=O)c1c[nH]c2c1ccc1ccccc12	11.1 µM	3.83 µM	6.03 µM	7.2 µM	10.5 µM	3.5 µM	3.08 µM	3.52 µM	23 µM	3.47 µM	4.3 µM	17.3 µM	12.3 µM	3.91 µM	21.1 µM	4.69 µM	9.75 µM	2.67 µM
O=C1C[C@H](COCc2ccccc2)NC(=O)C[C@H](COCc2ccccc2)NC(=O)C[C@H](COCc2ccccc2)N1	> 100 µM	> 100 µM	> 100 µM	35.4 µM	> 100 µM	> 100 µM	> 100 µM	> 100 µM	> 100 µM	> 100 µM	> 100 µM	> 100 µM	> 100 µM	> 100 µM	> 100 µM	> 100 µM	41.1 µM	> 100 µM
O=C(O)Cc1ccc(Nc2nc3ccccc3nc2C(=O)O)cc1	> 100 µM	> 100 µM	> 100 µM	> 100 µM	> 100 µM	> 100 µM	> 100 µM	> 100 µM	> 100 µM	> 100 µM	> 100 µM	> 100 µM	> 100 µM	> 100 µM	> 100 µM	> 100 µM	> 100 µM	> 100 µM
COc1ccc(C[C@@H](C(=O)NCCNC(=O)C(CC(C)C)N(C)C(=O)[C@@H]2CCCN2C(=O)[C@H](C)O)N(C)C(=O)[C@@H]2CCCN2C(=O)[C@H](CC(C)C)NC(=O)C(C)NC(=O)OCc2ccccc2)cc1 (stereo partly specified) (Cbz-[ξA]LP[NMeY](Me)-{Ethylenediamine-ξNMeL-Pro-Lac})	> 100 µM	> 100 µM	> 100 µM	> 100 µM	> 100 µM	> 100 µM	> 100 µM	> 100 µM	> 100 µM	> 100 µM	> 100 µM	> 100 µM	> 100 µM	> 100 µM	> 100 µM	> 100 µM	> 100 µM	> 100 µM
O=C1c2c(Br)sc(Br)c2[C@@H](Cl)[C@H]1Cl	46.6 µM	71.3 µM	35.5 µM	42.5 µM	> 100 µM	> 100 µM	42 µM	39.1 µM	82.7 µM	43.8 µM	> 100 µM	30 µM	43 µM	37.7 µM	31.1 µM	9.14 µM	87.3 µM	40.4 µM
O=c1[nH]nc(-c2ccccc2)n1/N=C/c1ccco1	> 100 µM	> 100 µM	> 100 µM	> 100 µM	> 100 µM	> 100 µM	> 100 µM	> 100 µM	> 100 µM	> 100 µM	> 100 µM	> 100 µM	> 100 µM	> 100 µM	> 100 µM	> 100 µM	> 100 µM	> 100 µM
Cc1ccc(S(=O)(=O)NC(=O)Nc2cccc(S(N)(=O)=O)c2)cc1	> 100 µM	> 100 µM	> 100 µM	> 100 µM	> 100 µM	> 100 µM	> 100 µM	> 100 µM	> 100 µM	> 100 µM	> 100 µM	> 100 µM	> 100 µM	> 100 µM	> 100 µM	> 100 µM	> 100 µM	> 100 µM
O=C1NC(N2CCCC(CO)C2)=N/C1=C\c1ccccc1 (stereo unspecified)	> 100 µM	> 100 µM	> 100 µM	> 100 µM	> 100 µM	> 100 µM	> 100 µM	> 100 µM	> 100 µM	> 100 µM	> 100 µM	> 100 µM	> 100 µM	> 100 µM	> 100 µM	> 100 µM	> 100 µM	> 100 µM
O=[N+]([O-])c1ccc(-n2nc3ccc4c(no[n+]4[O-])c3[n+]2[O-])c([N+](=O)[O-])c1	26.6 µM	7.75 µM	10.1 µM	8.02 µM	8.6 µM	15.1 µM	3.4 µM	3.29 µM	7.45 µM	7.39 µM	5.81 µM	6.39 µM	17 µM	9.92 µM	7.54 µM	> 21.4 µM	6.88 µM	13.2 µM
